In patent publication US9682976B2, “Protein kinase C inhibitors and uses thereof” (Rigel Pharmaceuticals, Inc., priority 2012, dated 2017):

test system: PKC mediated IL-2 production; test: IL-2 ELISA, human primary T cell, anti CD3+CD28+; format: cell-based; conditions: Homo sapiens, T-cell, 24 h, human primary T cells stimulated with αCD3 and αCD28, 24 hours
Method: Compounds 1-328 were tested in a whole cell functional assay for PKC mediated IL-2 production as follows. Human primary T cell isolation and culture: Human primary T cells were prepared as follows. Whole blood was obtained from a healthy volunteer, mixed 1:1 with PBS, layered on to Ficoll Hypaque (Amersham Pharmacia Biotech, Piscataway, N.J., Catalog #17-1440-03) in 2:1 blood/PBS:ficoll ratio and centrifuged for 30 minutes at 4° C. at 1750 rpm. The cells at the serum: ficoll interface were recovered and washed twice with 5 volumes of PBS. These freshly isolated human peripheral blood mononuclear cells were cultured in Yssel's medium containing 40 U/ml IL2 in a flask pre-coated with […] αCD3 and 5 μg/ml αCD28 (Anti-Human CD3, BD Pharmingen Catalog #555336, Anti-Human CD28, Beckman Coulter Catalog #IM1376). The cells were stimulated for 3-4 days, then transferred to a fresh flask and maintained in RPMI (RPMI-1640 with L-Glutamine; Mediatech, Inc., Herndon Va., cat. #10-040-CM) with 10% FBS and 40 U/ml IL-2. The primary T-cells were then washed twice with PBS to remove the IL-2.
Primary T cell stimulation and IL2 ELISA: Human primary T cells (100,000 cells per well) were pre-incubated with or without test compound in Yssel's medium for 1 hour at 37° C. Cells were then stimulated by transferring them to round-bottom 96-well plates pre-coated with […] αCD3 and 5 μg/ml αCD28. For counter assay, cells were instead stimulated by adding 8× stock solutions of PMA and ionomycin in Yssels (for final concentrations of 0.5 ng/ml PMA and 0.1 uM ionomycin, both from Calbiochem). Cells were incubated at 37° C. for 24 hours before 100 μL supernatants were harvested for quantification of IL-2 by ELISA using Human IL-2 Duoset ELISA Kit from R and D Systems, Cat. # DY202E.

Row | SMILES | EC50 [µM]
1 | Cc1nnnn1-c1ccc(F)c(Nc2ncc(Cl)c(N[C@@H]3C[C@@H]4CCCN4C(C)(C)C3)n2)c1 [Compound 150, 5-chloro-N4-((7R,8aS)-5,5-dimethyloctahydroindolizin-7-yl)-N2-(2-fluoro-5-(5-methyl-1H-tetrazol-1-yl)phenyl)pyrimidine-2,4-diamine] | < 0.1
2 | Cn1nnn(-c2cc(Nc3ncc(F)c(N[C@@H]4C[C@@H]5CCCN5C(C)(C)C4)n3)c(F)cc2OC(C)(C)CO)c1=O [Compound 85, 1-(2-(1-hydroxy-2-methylpropan-2-yloxy)-5-(4-((7R,8aS)-octahydro-5,5-dimethylindolizin-7-ylamino)-5-fluoropyrimidin-2-ylamino)-4-fluorophenyl)-4-methyl-1H-tetrazol-5(4H)-one] | 0.1 to 0.5
3 | CC1(C)CC[C@H]2C[C@@H](Nc3nc(Nc4ccc(OC5CC(O)C5)c(C(F)(F)F)c4)ncc3F)CCN21 (stereo partly drawn) [Compound 305, 3-(4-((4-(((7S,8aS)-3,3-Dimethyloctahydroindolizin-7-yl)amino)-5-fluoropyrimidin-2-yl)amino)-2-(trifluoromethyl)phenoxy)cyclobutan-1-ol] | 0.1 to 0.5
4 | Cn1nnn(-c2cc(Nc3ncc(F)c(NC4CC5CCCN5C(C)(C)C4)n3)ccc2OC2COC2)c1=O (racemic) [Compound 38, 1-(5-(5-fluoro-4-(octahydro-5,5-dimethylindolizin-7-ylamino)pyrimidin-2-ylamino)-2-(oxetan-3-yloxy)phenyl)-4-methyl-1H-tetrazol-5(4H)-one] | 0.1 to 0.5
5 | COc1cc(Nc2ncc(F)c(N[C@@H]3C[C@@H]4CCCN4C(C)(C)C3)n2)ccc1O [Compound 208, 4-((4-(((7R,8aS)-5,5-dimethyloctahydroindolizin-7-yl)amino)-5-fluoropyrimidin-2-yl)amino)-2-methoxyphenol] | 1 to 10
6 | Cn1nnn(-c2cc(Nc3ncc(F)c(NC4CCN5C(CCC5(C)C)C4)n3)c(F)cc2C2CC2)c1=O (racemic) [Compound 26, 1-(5-(5-fluoro-4-(octahydro-3,3-dimethylindolizin-7-ylamino)pyrimidin-2-ylamino)-2-cyclopropyl-4-fluorophenyl)-4-methyl-1H-tetrazol-5(4H)-one] | 1 to 10
7 | CC1(C)C[C@H](Nc2nc(Nc3ccc(OCCO)c(-n4nnnc4C4CC4)c3)ncc2F)C[C@@H]2CCCN21 [Compound 129, 2-(2-(5-cyclopropyl-1H-tetrazol-1-yl)-4-((4-(((7R,8aS)-5,5-dimethyloctahydroindolizin-7-yl)amino)-5-fluoropyrimidin-2-yl)amino)phenoxy)ethan-1-ol] | < 0.1
8 | CC1(C)C[C@H](Nc2nc(Nc3cc(-n4nnnc4C4CC4)c(O)cc3F)ncc2F)C[C@@H]2CCCN21 [Compound 256, 4-(4-((7R,8aS)-octahydro-5,5-dimethylindolizin-7-ylamino)-5-fluoropyrimidin-2-ylamino)-2-(5-cyclopropyl-1H-tetrazol-1-yl)-5-fluorophenol] | 1 to 10
9 | Cn1nnn(-c2cc(Nc3ncc(F)c(N[C@@H]4C[C@@H]5CCCN5C(C)(C)C4)n3)c(F)cc2C#CCO)c1=O [Compound 96, 1-(5-(4-((7R,8aS)-octahydro-5,5-dimethylindolizin-7-ylamino)-5-fluoropyrimidin-2-ylamino)-4-fluoro-2-(3-hydroxyprop-1-ynyl)phenyl)-4-methyl-1H-tetrazol-5(4H)-one] | < 0.1
10 | Cn1nnn(-c2cc(Nc3ncc(F)c(N[C@@H]4C[C@@H]5CCCN5C(C)(C)C4)n3)c(F)cc2Br)c1=O [Compound 91, 1-(5-(4-((7R,8aS)-octahydro-5,5-dimethylindolizin-7-ylamino)-5-fluoropyrimidin-2-ylamino)-2-bromo-4-fluorophenyl)-4-methyl-1H-tetrazol-5(4H)-one] | < 0.1
11 | CC1(C)C[C@H](Nc2nc(Nc3cccc(-n4nnnc4SC(CO)CO)c3)ncc2F)C[C@@H]2CCCN21 [Compound 263, 2-(1-(3-(4-((7R,8aS)-octahydro-5,5-dimethylindolizin-7-ylamino)-5-fluoropyrimidin-2-ylamino)phenyl)-1H-tetrazol-5-ylthio)propane-1,3-diol] | 0.1 to 0.5
12 | CC(O)COc1ccc(Nc2ncc(F)c(N[C@@H]3C[C@@H]4CCCN4C(C)(C)C3)n2)cc1C#N (stereo partly drawn) [Compound 201, 5-((4-(((7R,8aS)-5,5-dimethyloctahydroindolizin-7-yl)amino)-5-fluoropyrimidin-2-yl)amino)-2-(2-hydroxypropoxy)benzonitrile] | 0.1 to 0.5
13 | Cc1ccc(Nc2ncc(F)c(N[C@@H]3C[C@@H]4CCCN4C(C)(C)C3)n2)cc1-n1nnn(CCO)c1=O [Compound 275, 1-(5-(4-((7R,8aS)-octahydro-5,5-dimethylindolizin-7-ylamino)-5-fluoropyrimidin-2-ylamino)-2-methylphenyl)-4-(2-hydroxyethyl)-1H-tetrazol-5(4H)-one] | 0.1 to 0.5
14 | CC1CN(c2ccc(Nc3ncc(F)c(N[C@H]4CCN5[C@@H](CCC5(C)C)C4)n3)cc2OC(F)F)CC(C)O1 (stereo partly drawn) [Compound 300, N2-(3-(Difluoromethoxy)-4-(2,6-dimethylmorpholino)phenyl)-N4-((7S,8aS)-3,3-dimethyloctahydroindolizin-7-yl)-5-fluoropyrimidine-2,4-diamine] | 0.1 to 0.5
15 | CC1(C)C[C@H](Nc2nc(Nc3ccc(N4CC(O)C4)c(C(F)(F)F)c3)ncc2F)C[C@@H]2CCCN21 [Compound 326, 1-(4-(4-((7R,8aS)-octahydro-5,5-dimethylindolizin-7-ylamino)-5-fluoropyrimidin-2-ylamino)-2-(trifluoromethyl)phenyl)azetidin-3-ol] | 0.1 to 0.5
16 | Cn1nnn(-c2cc(Nc3ncc(F)c(N[C@@H]4C[C@@H]5CCCN5C(C)(C)C4)n3)c(F)cc2OCC(=O)C(=O)O)c1=O [Compound 171, 3-(4-((4-(((7R,8aS)-5,5-dimethyloctahydroindolizin-7-yl)amino)-5-fluoropyrimidin-2-yl)amino)-5-fluoro-2-(4-methyl-5-oxo-4,5-dihydro-1H-tetrazol-1-yl)phenoxy)-2-oxopropanoic acid] | > 10
17 | Cn1nnn(-c2cc(Nc3ncc(F)c(N[C@@H]4C[C@@H]5CCCN5C(C)(C)C4)n3)c(F)cc2OC[C@H](O)CO)c1=O [Compound 188, 1-(2-((R)-2,3-dihydroxypropoxy)-5-((4-(((7R,8aS)-5,5-dimethyloctahydroindolizin-7-yl)amino)-5-fluoropyrimidin-2-yl)amino)-4-fluorophenyl)-4-methyl-1,4-dihydro-5H-tetrazol-5-one] | 0.5 to 1
18 | CC1(C)C[C@H](Nc2nc(Nc3ccc(N4CCN(C5COC5)CC4)c(C#N)c3)ncc2F)C[C@@H]2CCCN21 [Compound 116] | 0.1 to 0.5
19 | CC1C(Nc2nc(Nc3cc(-n4nnn(C)c4=O)c(C4CC4)cc3F)ncc2F)CC(C)(C)N2CCCC12 (stereo not drawn) [Compound 69, 1-(5-(5-Fluoro-4-(octahydro-5,5,8-trimethylindolizin-7-ylamino)pyrimidin-2-ylamino)-2-cyclopropyl-4-fluorophenyl)-4-methyl-1H-tetrazol-5(4H)-one] | 0.5 to 1
20 | Cc1ccc(Nc2ncc(F)c(N[C@@H]3C[C@@H]4CCCN4C(C)(C)C3)n2)cc1-n1nn[nH]c1=O [Compound 272, 1-(5-(4-((7R,8aS)-octahydro-5,5-dimethylindolizin-7-ylamino)-5-fluoropyrimidin-2-ylamino)-2-methylphenyl)-1H-tetrazol-5(4H)-one] | > 10
21 | COc1ccc(Nc2ncc(F)c(N[C@@H]3C[C@@H]4CCCN4C(C)(C)C3)n2)cc1-n1nnnc1OC1COC1 [Compound 284, 5-fluoro-N4-((7R,8aS)-octahydro-5,5-dimethylindolizin-7-yl)-N2-(4-methoxy-3-(5-(oxetan-3-yloxy)-1H-tetrazol-1-yl)phenyl)pyrimidine-2,4-diamine] | < 0.1
22 | CC1(C)C[C@H](Nc2nc(Nc3cccc(C#N)c3)ncc2Cl)C[C@@H]2CCCN21 [Compound 153, 3-((5-chloro-4-(((7R,8aS)-5,5-dimethyloctahydroindolizin-7-yl)amino)pyrimidin-2-yl)amino)benzonitrile] | 0.1 to 0.5

same assay, conditions: T-cell, human primary T cells stimulated with αCD3 and αCD28, 24 hours

Row | SMILES | EC50 [µM]
23 | CC(O)COc1cc(F)c(Nc2ncc(F)c(N[C@@H]3C[C@@H]4CCCN4C(C)(C)C3)n2)cc1-n1nnn(C)c1=O (stereo partly drawn) [Compound 200, 1-(5-((4-(((7R,8aS)-5,5-dimethyloctahydroindolizin-7-yl)amino)-5-fluoropyrimidin-2-yl)amino)-4-fluoro-2-(2-hydroxypropoxy)phenyl)-4-methyl-1,4-dihydro-5H-tetrazol-5-one] | < 0.1

same assay, conditions: human primary T cells stimulated with αCD3 and αCD28, 24 hours

Row | SMILES | EC50 [µM]
24 | CC(C)N1CCC(Oc2ccc(Nc3ncc(F)c(NC4CC5CCCN5C(C)(C)C4)n3)cc2OC(F)F)CC1 (stereo not drawn) [Compound 6, (R/S, S/R, R/R, S/S)-N^2-(4-(1-isopropylpiperidin-4-yloxy)-3-(difluoromethoxy)phenyl)-5-fluoro-N^4-(octahydro-5,5-dimethylindolizin-7-yl)pyrimidine-2,4-diamine] | 0.1 to 0.5
